Non-standard residues stand in square brackets, D forms with d. No end group written: not given here. Nle = CCCC[C@H](N)C(=O)O
How the values were obtained:
[1] = target: T1, CCK-B receptors in medullary thyroid carcinoma (MTC) tissue sections (Homo sapiens, UniProt P32239); experiment: Receptor autoradiography: displacement of [125I]-CCK-10 analog (compound 15) binding to MTC tissue sections; conditions: increasing concentrations of unlabelled peptide, optical density in tumour area
T1 construct: Receptor autoradiography is performed on 10- and 20-μm thick cryostat sections of the various tumour samples; from tissue; host or cells: human medullary thyroid carcinoma (MTC) tissue sections
T1 sequence (P32239 1-447): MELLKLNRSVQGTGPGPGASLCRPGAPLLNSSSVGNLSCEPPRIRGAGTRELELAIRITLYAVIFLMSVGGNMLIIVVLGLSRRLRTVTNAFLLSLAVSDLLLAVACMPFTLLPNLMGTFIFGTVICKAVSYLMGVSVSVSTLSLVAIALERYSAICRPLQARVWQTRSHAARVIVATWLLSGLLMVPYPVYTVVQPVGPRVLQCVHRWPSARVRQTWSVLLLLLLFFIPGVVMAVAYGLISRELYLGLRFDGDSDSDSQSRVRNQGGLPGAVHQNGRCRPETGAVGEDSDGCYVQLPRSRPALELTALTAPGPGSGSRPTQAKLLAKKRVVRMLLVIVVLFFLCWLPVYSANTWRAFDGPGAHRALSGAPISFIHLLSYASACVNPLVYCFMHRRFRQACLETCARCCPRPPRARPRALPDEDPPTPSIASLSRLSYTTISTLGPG
Procedure: Receptor autoradiography is performed on 10- and 20-μm thick cryostat sections of the various tumour samples, as described by Reubi et al. (Cancer Res. 1990, 50, 5969-5977).
The tissues are cut on a cryostat, mounted on microscopes slides, and then stored at −20° C. for at least 3 days to improve adhesion of the tissue to the slide. The slide-mounted tissue sections are allowed to reach room temperature and are preincubated in 50 mmol/l Tris-HCl, 130 mmol/l NaCl, 4.7 mmol/l KCl, 5 mmol/l MgCl2, 1 mmol/l ethylene glycol-bi(β-aminoethylether)-N,N,N′,N′-tetraacetic acid, and 0.5% bovine serum albumin, pH 7.4 (preincubation solution), for 30 min. at 25° C. […] The sections are subsequently exposed to a 3H-Ultrofilm for 1 week, to detect the precise location of the radioactivity. […]
Tissue sections are incubated with 20,000 cpm/100 μl [^125I]-CCK-10 and increasing concentrations of unlabelled CCK-8 (unsulfated)(▴), CCK-8 (sulfated) (•) or somastotatin (∘). Each point represents the optical density of binding measured in the tumour area. […]
The displacement curves of DTPA substituted CCK-analogs, prepared as described in Example 2, are measured in order to determine the effect of the DTPA group and of substitution of some amino acids by other amino acids. […]
Each point represents the optical density of binding measured in the tumour area. […]

[2] = target: T1, CCK-B receptors in medullary thyroid carcinoma (MTC) tissue sections; experiment: Receptor autoradiography: displacement of [125I]-desulfated-CCK-10 (compound 13 or 14) binding to MTC tissue sections; conditions: for affinity of the mono 125I-iodinated radioligand: the two mono-iodinated compounds compared with each other
Procedure: The tissues are cut on a cryostat, mounted on microscopes slides, and then stored at −20° C. for at least 3 days to improve adhesion of the tissue to the slide. The slide-mounted tissue sections are allowed to reach room temperature and are preincubated in 50 mmol/l Tris-HCl, 130 mmol/l NaCl, 4.7 mmol/l KCl, 5 mmol/l MgCl2, 1 mmol/l ethylene glycol-bi(β-aminoethylether)-N,N,N′,N′-tetraacetic acid, and 0.5% bovine serum albumin, pH 7.4 (preincubation solution), for 30 min. at 25° C. The slides are then incubated in a solution containing the same medium as the preincubation solution except the bovine serum albumin is omitted, and the following compounds are added: 20000 dpm/100 μl of ^125I-CCK, 0.025% bacitracin, 1 mmol/l dithiothreitol, 2 μg/ml chymostatin, and 4 μg/ml leupeptin, pH=6.5. The slides are incubated at room temperature with the radioligand for 150 min., as described by Mantyh et al. (Gasteroenterology 1994, 107, 1019-30). To estimate non-specific binding, paired serial sections are incubated as described above, except that CCK-8 (sulfated) is added to the incubation medium. After the incubation, the slides are rinsed with four washes of 30 sec each in ice-cold preincubation solution, pH 7.4, dipped in ice-cold water, and then quickly dried in a refrigerator under a stream of cold air. The sections are subsequently exposed to a 3H-Ultrofilm for 1 week, to detect the precise location of the radioactivity.
Each point represents the optical density of binding measured in the tumour area. Non-specific binding is subtracted from all values.

Substance | displacement of [125I]-CCK-10 analog (compound 15) binding [1] | affinity of the mono 125I-iodinated radioligand [2] | also measured
^115In-DTPA-Asp-Tyr-Nle-Gly-Trp-Nle-Asp-Phe-NH2 [compound 25] | complete displacement | – | –
[^125I-D-Tyr]-Gly-Asp-Tyr-Nle-Gly-Trp-Nle-Asp-Phe-NH2 [compound 13] | – | same affinity | –
[dY]GDY[Nle]GW[Nle]DF-NH2 [compound 12] | – | – | displacement of [125I]-desulfated-CCK-10 (compound 13 or 14) binding ([2]; increasing concentrations of unlabelled peptide): complete displacement
D-Tyr-Gly-Asp-[^125I-Tyr]-Nle-Gly-Trp-Nle-Asp-Phe-NH2 [compound 14] | – | same affinity | –
^115In-DTPA-DAsp-Tyr-Nle-Gly-Trp-Nle-Asp-Phe-NH2 [compound 26] | complete displacement | – | –

From patent US20040185510A1, “Use of labelled CCK-B receptor ligands for the detection and localization of malignant human tumours” (priority 1996, published 2004)
